Assay results as given in patent publication US20050191735A1, “Oxidoreductase” (priority 2003, published 2005).
Where two headings read alike, the source gives them in different places.

Legend:
[1] = system: recombinant Lactobacillus reuteri oxidoreductase; experiment: Substrate spectrum in standard measurement mixture; format: biochemical; conditions: for NADP-dependent dehydrogenase activity: oxidation of the hydroxy ester
[2] = system: L. reuteri oxidoreductase; experiment: Solvent stability: enzyme activity after contact with organic solvents; format: biochemical, Lactobacillus reuteri; conditions: for Activity 8 h / Activity 24 h: room temperature; for stability with respect to organic solvents: in words
Description: The enzyme stability when making contact with organic solvents was studied by diluting the L. reuteri oxidoreductase 1:400 (in the case of water-miscible organic solvents) with the solvent mixtures indicated and incubating at room temperature. Subsequently, 10 μl of the enzyme solution were used in the standard assay mixture. Here too, the starting value was set to 100% after dilution in the buffer (potassium phosphate buffer 100 mM, pH=7.0, 1 mM MgCl2) and all other values were related thereto.
In the case of the water-immiscible organic solvents, dilution was likewise carried out in potassium phosphate buffer, the same volume of organic solvent was added to the mixture and the mixture incubated at room temperature in a thermal mixer at rpm=170. The activity was measured from the aqueous phase.

[3] = system: L. reuteri oxidoreductase; experiment: Preparative conversion, coenzyme regeneration with Thermoanerobium brockii ADH; format: biochemical, Lactobacillus reuteri; conditions: 4 ml substrate, 1 000 units oxidoreductase, room temperature, after 24 h
Description: For a preparative approach, a mixture of 4 ml of potassium phosphate buffer 100 mM, pH=7.0, 2 ml of isopropanol, 4 ml of ethyl 2-oxo-4-phenylbutyrate, 0.064 mg of NADP, 1 000 units of L. reuteri oxidoreductase and 10 mg of Thermoanerobium brockii ADH (Fluka, approximately 100 U, based on oxidation of 2-propanol) was incubated at room temperature with constant mixing for 24 h. […] 97% of the product was the corresponding S-alcohol.

[4] = system: L. reuteri oxidoreductase; experiment: Preparative conversion, coenzyme regeneration with KRED 1004; format: biochemical, Lactobacillus reuteri; conditions: 4 ml substrate, 1 000 units oxidoreductase, 1 mg KRED 1004, room temperature, after 2 h
Description: For a preparative approach, a mixture of 4 ml of potassium phosphate buffer 100 mM, pH=7.0, 2 ml of isopropanol, 4 ml of ethyl 2-oxo-4-phenylbutyrate, 0.064 mg of NADP, 1 000 units of L. reuteri oxidoreductase and 1 mg of KRED 1004 (Biocatalytics Inc, Pasadena) was incubated at room temperature with constant mixing for 2 h. […] 98% of the product was the corresponding S-alcohol.

[5] = pH optimum of recombinant L. reuteri oxidoreductase; format: biochemical
Description: Preparation of the following measurement buffers, all of which are 50 mM, contain 1 mM MgCl2 and have different pH values.
Enzyme diluted as required (1:20)
A pH optimum of between 6.5 and 7 was determined for the enzyme of the invention.

[6] = pH stability of recombinant L. reuteri oxidoreductase; format: physicochemical
Description: The dependence of the activity of the enzyme on storage in buffers of different pH was studied for the pH range from 4 to 11. For this purpose, various buffers (50 mM) in the pH range from 4 to 11 were prepared and the enzyme overexpressed in example 4 was diluted therein 1:200 and incubated for 30, 60 and 300 min. All buffers contained 1 mM MgCl2. 10 μl thereof were then used in the normal activity assay. The starting value here is the measurement value obtained immediately after diluting the enzyme in potassium phosphate buffer 50 mM pH=7.0. Said value corresponded under predefined conditions to a change in extinction of 0.70/min and was set to 100% and all subsequent measurement values were related to this value.

[7] = Temperature optimum of recombinant L. reuteri oxidoreductase; format: biochemical
[8] = Temperature stability of recombinant L. reuteri oxidoreductase; format: physicochemical; conditions: after only 30 min
Description: The temperature stability for the range from 15° C. to 70° C. was determined in a manner similar to that described under 5.2. […] Here too, the starting value used was the measurement value which is obtained immediately after diluting the enzyme in potassium phosphate buffer 50 mM pH=7.0 and which was set to 100% here, too.

[9] = substrate: CCCC(=O)C(=O)OCC; experiment: Determination of Km and vmax; format: biochemical, Lactobacillus reuteri; conditions: other: potassium phosphate buffer pH=7.0, enzyme solution 1:300
Description: The enzyme solution used was the 1:300 diluted lysate (600 μl) obtained from 0.1 g of recombinant E. coli cells.

[10] = Oxidation, activity with ethyl 2-oxo-4-phenylbutyrate set to 100%
[11] = water-miscible solvent mixture or buffer, enzyme 1:400, starting value 100%
[12] = reduction with NADPH, activity with ethyl 2-oxo-4-phenylbutyrate set to 100%
[13] = water-immiscible solvent, same volume as buffer, activity from the aqueous phase

In the case of O=C(O)C[C@H](O)CCl [S-4-Chloro-3-hydroxy-butyrate], the Relative activity % [1, 10] is reported as 0% and the NADP-dependent dehydrogenase activity [1] is reported as “no NADP-dependent dehydrogenase activity”.

For CCO [5% EtOH, EtOH], the “Activity 8 h” value [2, 11] was 64% and the “Activity 24 h” value [2, 11] was 65%.

For CC(=O)Cc1ccccc1 [1-Phenyl-2-propanone], the Relative activity % [1, 12] was 3%.

With ClC(Cl)Cl [Chloroform] the “Activity 8 h” value [2, 13] was 6% and the “Activity 24 h” value [2, 13] was 0%.

With CCOC(=O)CC(=O)CCl [Ethyl 4-chloro-acetoacetate] the Relative activity % [1, 12] was 16%.

Molecule CC(C)O [2-Propanol] has a Relative activity % [1, 10] of 0%.

Work on CC(=O)c1ccccc1 [Acetophenone] yielded a Relative activity % [1, 12] of 0%.

In the case of C[S+](C)[O-] [10% DSMO], the “Activity 8 h” value [2, 11] is reported as 80% and the “Activity 24 h” value [2, 11] is reported as 80%.

Work on CCOC(=O)C(=O)c1ccccc1 [Ethyl phenylglyoxylate] yielded a Relative activity % [1, 12] of 2%.

With CCOC(=O)CCCCC(=O)CCCl [Ethyl 8-chloro-6-oxooctanoic acid] the Relative activity % [1, 12] was 190%.

For CC(C)O [20% Isopropanol, Isopropanol], the “Activity 8 h” value [2, 11] was 100% and the “Activity 24 h” value [2, 11] was 100%.

In the case of CC(C)OC(C)C [Diisopropyl ether], the “Activity 8 h” value [2, 13] is reported as 94% and the “Activity 24 h” value [2, 13] is reported as 77%.

In the case of CCCCCCC [Heptane], the “Activity 8 h” value [2, 13] is reported as 113% and the “Activity 24 h” value [2, 13] is reported as 100%.

In the case of CC(C)O [30% Isopropanol, Isopropanol], the “Activity 8 h” value [2, 11] is reported as 0% and the “Activity 24 h” value [2, 11] is reported as 0%.

In the case of O=C(CCl)c1cccc(Cl)c1 [2-Chloro-l-(3-chloro-phenyl)-ethan-1-one], the Relative activity % [1] is reported as 0%.

For CCCCCC [Hexane], the “Activity 8 h” value [2, 13] was 115% and the “Activity 24 h” value [2, 13] was 100%.

With CCOC(=O)[C@H](C)O [Ethyl L-lactate] the Relative activity % [1, 10] was 0% and the NADP-dependent dehydrogenase activity [1] was “no NADP-dependent dehydrogenase activity”.

For CCCC(=O)C(=O)OCC [Ethyl 2-oxovalerate], the Relative activity % [1, 12] was 190%.

O=C(O)C(=O)Cc1ccccc1 [2-Oxo-3-phenyl-propionic acid] gave a Relative activity % [1, 12] of 0.5%.

CCOC(=O)CC(=O)CC [Ethyl 3-oxo-valerate] gave a Relative activity % [1, 12] of 1.3%.

For CCC(=O)C(=O)O [2-oxobutyric acid], the Relative activity % [1, 12] was 0%.

For CCOC(=O)[C@@H](C)O [Ethyl D-lactate], the Relative activity % [1, 10] was 0% and the NADP-dependent dehydrogenase activity [1] was “no NADP-dependent dehydrogenase activity”.

In the case of COC(=O)CC(C)=O [Methyl acetoacetate], the Relative activity % [1, 12] is reported as 0.3%.

In the case of COC(=O)CCCCC(=O)CC(=O)OC [Dimethyl-3-oxo-1,8-octanedioic acid], the Relative activity % [1, 12] is reported as 42%.

For CCCC(=O)C(=O)O [2-Oxovaleric acid], the Relative activity % [1, 12] was 0%.

For CCO [10% EtOH, EtOH], the “Activity 8 h” value [2, 11] was 68% and the “Activity 24 h” value [2, 11] was 70%.

For CCOC(=O)C(=O)CCc1ccccc1 [Ethyl 2-oxo-4-phenyl-butyrate], the Relative activity % [1, 12] was 100%, the “conversion to ethyl 2-hydroxy-4-phenylbutyrate” value [3] was “completely converted” and the “conversion to ethyl 2-hydroxy-4-phenylbutyrate” value [4] was “completely converted”.

With CCOCC [Diethyl ether] the “Activity 8 h” value [2, 13] was 32% and the “Activity 24 h” value [2, 13] was 20%.

CCCCCCC(C)=O [2-Octanone] showed a Relative activity % [1, 12] of 1%.

In the case of CCCCCCCC(=O)c1ccccc1 [Caprylophenone], the Relative activity % [1, 12] is reported as 0%.

For CCOC(=O)[C@H](O)CCc1ccccc1, the Relative activity % [1, 10] was 0% and the NADP-dependent dehydrogenase activity [1] was “no NADP-dependent dehydrogenase activity”.

For CCOC(C)=O [Ethyl acetate], the “Activity 8 h” value [2, 13] was 0% and the “Activity 24 h” value [2, 13] was 0%.

For C[S+](C)[O-] [20% DSMO], the “Activity 8 h” value [2, 11] was 79% and the “Activity 24 h” value [2, 11] was 80%.

In the case of CCCCOC(C)=O [Butyl acetate], the “Activity 8 h” value [2, 13] is reported as 74% and the “Activity 24 h” value [2, 13] is reported as 12%.

For C1CCCCC1 [Cyclohexane], the “Activity 8 h” value [2, 13] was 113% and the “Activity 24 h” value [2, 13] was 100%.

CCOC(=O)C(C)=O [Ethyl pyruvate] gave a Relative activity % [1, 12] of 2%.

For CCO [30% EtOH, EtOH], the “Activity 8 h” value [2, 11] was 77% and the “Activity 24 h” value [2, 11] was 75%.

CC(C)=O [Acetone] showed a Relative activity % [1, 12] of 0%.

In the case of COC(C)(C)C [MTBE], the “Activity 8 h” value [2, 13] is reported as 90% and the “Activity 24 h” value [2, 13] is reported as 81%.

For CC(C)O [5% Isopropanol, Isopropanol], the “Activity 8 h” value [2, 11] was 77% and the “Activity 24 h” value [2, 11] was 77%.

For R-4-Chloro-3-hydroxy-butyrate, the Relative activity % [1, 10] was 0% and the NADP-dependent dehydrogenase activity [1] was “no NADP-dependent dehydrogenase activity”.

With CC(C)O [10% Isopropanol, Isopropanol] the “Activity 8 h” value [2, 11] was 86% and the “Activity 24 h” value [2, 11] was 85%.

With CCO [20% EtOH, EtOH] the “Activity 8 h” value [2, 11] was 83% and the “Activity 24 h” value [2, 11] was 80%.

In the case of CCCCCC(=O)CC [3-Octanone], the Relative activity % [1, 12] is reported as 4%.

B1: recombinant L. reuteri oxidoreductase (Limosilactobacillus reuteri subsp. reuteri) (protein)
chain: MKNIMIAGAGVLGSQIAYQTALSGFNVSVYNHHIDTAERRIKALKSDYERDLHLTDKEFQQGLNNIKVITDDVATAVKDADLMIEALPESLELKEQFYEEVSELAPEKTIFASNSSTFIPSQLAPYTDRPEKFLNMHFANQIWKFNVVEIMGTSQTSPEVIEEATKFAREIKMVPVILNKEQHGYILNSLLIPLLASGLSLWAKGVADPAMIDKDWMISTGAPMGPFGILDMVGLRTAAQIERNAYAQTKDESHKEIADKMEQMIQEGHEGKESGQGFYNYPNPAFMDPDFLKH
With B1 the “share of maximum activity” value ([5]; in the pH range from 4.5 to 8) was 80%, the “activity outside the pH range” value ([5]; pH values of below 4.0 and above 8.5) was “rapidly decreasing” and the remaining activity ([6]; pH 4.0, after 5 h) was 50%. The remaining activity ([6]; pH 9.0, after 5 h) was 40%, the “stability at high pH” value ([6]; pH values above 9.5) was “immediate inactivation” and the “Activity in U/ml of undiluted enzyme” value ([7]; 15 ° C.) was 385 U/ml of undiluted enzyme. The “Activity in U/ml of undiluted enzyme” value ([7]; 20 ° C.) was 745 U/ml of undiluted enzyme, the “Activity in U/ml of undiluted enzyme” value ([7]; 25 ° C.) was 1090 U/ml of undiluted enzyme and the “Activity in U/ml of undiluted enzyme” value ([7]; 30 ° C.) was 1350 U/ml of undiluted enzyme. For the same molecule, the “Activity in U/ml of undiluted enzyme” value ([7]; 35 ° C.) was 1860 U/ml of undiluted enzyme, the “Activity in U/ml of undiluted enzyme” value ([7]; 40 ° C.) was 2500 U/ml of undiluted enzyme and the “Activity in U/ml of undiluted enzyme” value ([7]; 45 ° C.) was 2900 U/ml of undiluted enzyme. For the same molecule, the “Activity in U/ml of undiluted enzyme” value ([7]; 50 ° C.) was 3200 U/ml of undiluted enzyme, the “Activity in U/ml of undiluted enzyme” value ([7]; 55 ° C.) was 3800 U/ml of undiluted enzyme and the “Activity in U/ml of undiluted enzyme” value ([7]; 60 ° C.) was 617 U/ml of undiluted enzyme. The “Activity in U/ml of undiluted enzyme” value ([7]; 65 ° C.) was 180 U/ml of undiluted enzyme, the “Activity in U/ml of undiluted enzyme” value ([7]; 70 ° C.) was 90 U/ml of undiluted enzyme and the “optimal temperature (maximum activity)” value ([7]; standard measurement mixture, 15° C. to 70° C.) was 55 °C. For the same molecule, the “enzyme activity after incubation at 55° C.” value [8] was “no longer detectable”, the “stability with respect to organic solvents” value [2] was “remarkably stable” and the “stability with respect to organic solvents” value ([2]; listed as Lactobacillus reuteri oxidoreductase) was “high stability”. For the same molecule, the Km [9] was 180 ± 70 µM.
